What was measured:
Experiment in all cases: relative viability (nuclei count vs DMSO), 5 days (fraction); higher = more cells survive
CAL-12T = conditions: first compound 1 µM
Outline: (§1)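 Cells from lung cancer lines were seeded into 1536-well plates and, one day later, dosed by pin tool. Treatments were either a single drug or a fixed dose of an anchor drug with five library-drug doses (not always all listed) in √10 steps. After 5 days, nuclei were stained in a one-step fixation (final 0.05% Triton X-100, 1% formaldehyde, 1 ug/ml Hoechst) and counted on 4× images, and relative viability is the treated-to-vehicle nuclei ratio, as the median of duplicate plates.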

201T = test system: 201T
Outline: as §1

NCI-H460 = test system: NCI-H460
Outline: as §1

NCI-H596 = test system: NCI-H596
Outline: as §1

NCI-H1651 = test system: NCI-H1651
Outline: as §1

NCI-H520 = test system: NCI-H520
Outline: as §1

LC-2-ad = test system: LC-2-ad
Outline: as §1

NCI-H650 = test system: NCI-H650
Outline: as §1

NCI-H727 = test system: NCI-H727
Outline: as §1

LCLC-97TM1 = test system: LCLC-97TM1
Outline: as §1

PC-3 [JPC-3] = test system: PC-3 [JPC-3]
Outline: as §1

A-427 = test system: A-427
Outline: as §1

Structure (SMILES): O=c1cc(N2CCOCC2)oc2c(-c3cccc4c3sc3ccccc34)cccc12 + O=C(c1cc(Cc2n[nH]c(=O)c3ccccc23)ccc1F)N1CCN(C(=O)C2CC2)CC1 [Olaparib] (partner 8 µM)
- relative viability (CAL-12T): 0.744
- relative viability (201T; first compound 0.01 µM): 0.817
- relative viability (201T; first compound 0.03162 µM): 0.842
- relative viability (201T; first compound 0.1 µM): 0.86
- relative viability (201T; first compound 0.3162 µM): 0.815
- relative viability (201T; first compound 1 µM): 0.866
- relative viability (NCI-H460; first compound 0.01 µM): 0.452
- relative viability (NCI-H460; first compound 0.03162 µM): 0.37
- relative viability (NCI-H460; first compound 0.1 µM): 0.452
- relative viability (NCI-H460; first compound 0.3162 µM): 0.403
- relative viability (NCI-H460; first compound 1 µM): 0.406
- relative viability (NCI-H596; first compound 0.01 µM): 0.675
- relative viability (NCI-H596; first compound 0.03162 µM): 0.628
- relative viability (NCI-H596; first compound 0.1 µM): 0.735
- relative viability (NCI-H596; first compound 0.3162 µM): 0.683
- relative viability (NCI-H596; first compound 1 µM): 0.694
- relative viability (NCI-H1651; first compound 0.01 µM): 0.19
- relative viability (NCI-H1651; first compound 0.03162 µM): 0.188
- relative viability (NCI-H1651; first compound 0.1 µM): 0.179
- relative viability (NCI-H1651; first compound 0.3162 µM): 0.178
- relative viability (NCI-H1651; first compound 1 µM): 0.168
- relative viability (NCI-H520; first compound 0.01 µM): 0.42
- relative viability (NCI-H520; first compound 0.03162 µM): 0.406
- relative viability (NCI-H520; first compound 0.1 µM): 0.366
- relative viability (NCI-H520; first compound 0.3162 µM): 0.351
- relative viability (NCI-H520; first compound 1 µM): 0.338
- relative viability (LC-2-ad; first compound 0.01 µM): 0.707
- relative viability (LC-2-ad; first compound 0.03162 µM): 0.694
- relative viability (LC-2-ad; first compound 0.1 µM): 0.77
- relative viability (LC-2-ad; first compound 0.3162 µM): 0.764
- relative viability (LC-2-ad; first compound 1 µM): 0.662
- relative viability (NCI-H650; first compound 0.01 µM): 0.424
- relative viability (NCI-H650; first compound 0.03162 µM): 0.38
- relative viability (NCI-H650; first compound 0.3162 µM): 0.381
- relative viability (NCI-H650; first compound 1 µM): 0.4
- relative viability (NCI-H727; first compound 0.01 µM): 0.692
- relative viability (NCI-H727; first compound 0.03162 µM): 0.618
- relative viability (NCI-H727; first compound 0.1 µM): 0.679
- relative viability (NCI-H727; first compound 0.3162 µM): 0.711
- relative viability (NCI-H727; first compound 1 µM): 0.684
- relative viability (LCLC-97TM1; first compound 0.01 µM): 0.316
- relative viability (LCLC-97TM1; first compound 0.03162 µM): 0.374
- relative viability (LCLC-97TM1; first compound 0.1 µM): 0.502
- relative viability (LCLC-97TM1; first compound 0.3162 µM): 0.269
- relative viability (LCLC-97TM1; first compound 1 µM): 0.432
- relative viability (PC-3 [JPC-3]; first compound 0.01 µM): 1.07
- relative viability (PC-3 [JPC-3]; first compound 0.03162 µM): 1.11
- relative viability (PC-3 [JPC-3]; first compound 0.1 µM): 1.15
- relative viability (PC-3 [JPC-3]; first compound 0.3162 µM): 1.14
- relative viability (PC-3 [JPC-3]; first compound 1 µM): 1.09
- relative viability (A-427; first compound 0.01 µM): 0.742
- relative viability (A-427; first compound 0.03162 µM): 0.706
- relative viability (A-427; first compound 0.1 µM): 0.737
- relative viability (A-427; first compound 0.3162 µM): 0.731
- relative viability (A-427; first compound 1 µM): 0.733

Reference: the supplement of paper PMC10307832
